The values that follow come from article PMC3492160, “Identification of white campion (Silene latifolia) guaiacol O-methyltransferase involved in the biosynthesis of veratrole, a key volatile for pollinator attraction” (BMC Plant Biology, 2012).

The test system of one test is T1, SlGOMT1.
T1 construct: no tag removal described
In words: radiometric methylation assay with […]-SAM, ethyl acetate extraction, double reciprocal plot. The format is biochemical, Silene latifolia. The settings on record: SAM 200 μM constant; 5 mM MgCl2; Tris-HCl pH 7.5; room temperature; apparent Km.

In a further test the test system is T2, SlGOMT2.
T2 construct: no tag removal described
Described as above. To be noted: SAM 200 μM constant; 5 mM MgCl2; Tris-HCl pH 7.5; room temperature; apparent Km. The format is biochemical, Silene latifolia.

Structures are written as SMILES.

A word on the Km: it is the substrate concentration at which the rate is half of its maximum. On to `COc1ccccc1O` [guaiacol], for which the Km with SlGOMT1 worked out at 9.79 ± 1.51 µM; with SlGOMT2, 501 ± 198 µM.
